PubChem BioAssay (NCI)
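Protocol summary: plate cells (96-well), add compound at 5 concentrations, incubate 48 h, interpolate endpoints linearly. TGI marks complete inhibition of growth.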

How the values were obtained:
Assay in all cases: NCI tumour cell line growth inhibition, 48 h
[1] = tested on: SK-MEL-28 melanoma
[2] = tested on: HCT-116 colon
[3] = tested on: SR leukemia
[4] = tested on: HCC-2998 colon
[5] = tested on: DMS 114 small cell lung
[6] = tested on: A498 renal
[7] = tested on: OVCAR-3 ovarian
[8] = tested on: IGROV1 ovarian
[9] = tested on: ACHN renal
[10] = tested on: SK-OV-3 ovarian
[11] = tested on: UO-31 renal
[12] = tested on: SK-MEL-2 melanoma
[13] = tested on: CAKI-1 renal
[14] = tested on: KM12 colon
[15] = tested on: M14 melanoma
[16] = tested on: XF 498 CNS
[17] = tested on: EKVX NSCLC
[18] = tested on: U251 CNS
[19] = tested on: NCI-H522 lung
[20] = tested on: RXF 393 renal
[21] = tested on: CCRF-CEM leukemia
[22] = tested on: NCI-H23 lung
[23] = tested on: MOLT-4 leukemia
[24] = tested on: TK-10 renal
[25] = tested on: HT29 colon
[26] = tested on: SNB-78 CNS
[27] = tested on: KM20L2 colon
[28] = tested on: LXFL 529 NSCLC
[29] = tested on: HOP-92 NSCLC
[30] = tested on: SNB-75 CNS
[31] = tested on: UACC-62 melanoma
[32] = tested on: COLO 205 colon
[33] = tested on: OVCAR-5 ovarian
[34] = tested on: SNB-19 CNS
[35] = tested on: NCI-H226 lung
[36] = tested on: SF-539 CNS
[37] = tested on: A549 NSCLC
[38] = tested on: SK-MEL-5 melanoma
[39] = tested on: HCT-15 colon
[40] = tested on: UACC-257 melanoma
[41] = tested on: HOP-18 NSCLC
[42] = tested on: 786-0 renal
[43] = tested on: LOX IMVI melanoma
[44] = tested on: HL-60(TB) leukemia
[45] = tested on: MALME-3M melanoma
[46] = tested on: OVCAR-4 ovarian
[47] = tested on: OVCAR-8 ovarian
[48] = tested on: SF-295 CNS
[49] = tested on: SF-268 CNS
[50] = tested on: DMS 273 small cell lung
[51] = tested on: NCI-H460 lung
[52] = tested on: SN12C renal
[53] = tested on: K-562 leukemia
[54] = tested on: DLD-1 colon
[55] = tested on: HOP-62 NSCLC
[56] = tested on: M19-MEL melanoma
[57] = tested on: RPMI-8226 leukemia
[58] = tested on: SW-620 colon
[59] = tested on: RXF-631 renal

For `CC#C[P+](c1ccccc1)(c1ccccc1)c1ccccc1`, the TGI [1] was 25 µM, the TGI [2] was 13.3 µM and the TGI [3] was 14.3 µM. The TGI [4] was 14.5 µM, the TGI [5] was 9.95 µM and the TGI [6] was greater than 100 µM. For the same molecule, the TGI [7] was 14.3 µM, the TGI [8] was 26.1 µM and the TGI [9] was 21.8 µM. The TGI [10] was 38.5 µM, the TGI [11] was 76.4 µM and the TGI [12] was 5.75 µM. For the same molecule, the TGI [13] was 11.3 µM, the TGI [14] was 11.3 µM and the TGI [15] was 5.78 µM. For the same molecule, the TGI [16] was 7.26 µM, the TGI [17] was 22.5 µM and the TGI [18] was 11.8 µM. For the same molecule, the TGI [19] was 0.924 µM, the TGI [20] was 18.9 µM and the TGI [21] was 3.57 µM. It also gave a TGI [22] of 7.03 µM, a TGI [23] of 5.31 µM and a TGI [24] of 15.7 µM. It also gave a TGI [25] of 12.9 µM, a TGI [26] of 22.9 µM and a TGI [27] of 21.3 µM. It also gave a TGI [28] of 12.6 µM, a TGI [29] of 5.42 µM and a TGI [30] of 12 µM. It also gave a TGI [31] of 14.8 µM, a TGI [32] of 2.77 µM and a TGI [33] of 22 µM. It also gave a TGI [34] of 15 µM, a TGI [35] of 14.2 µM and a TGI [36] of 10.1 µM. It also gave a TGI [37] greater than 100 µM, a TGI [38] of 11.9 µM and a TGI [39] of 35.8 µM. The TGI [40] was 9.59 µM, the TGI [41] was 25.4 µM and the TGI [42] was 10.7 µM. It also gave a TGI [43] of 6.75 µM, a TGI [44] of 13.9 µM and a TGI [45] of 22.4 µM. The TGI [46] was 20.1 µM, the TGI [47] was 12 µM and the TGI [48] was 9.15 µM. The TGI [49] was 8.44 µM, the TGI [50] was 10.6 µM and the TGI [51] was 19.2 µM. For the same molecule, the TGI [52] was 4.13 µM, the TGI [53] was 11.8 µM and the TGI [54] was 16.7 µM. The TGI [55] was 17.4 µM and the TGI [56] was 11.8 µM.
Molecule `O=[N+]([O-])c1ccc(-n2nnc(C3=NCCN3)c2-c2ccc(Cl)cc2)cc1` has a TGI [1] greater than 100 µM, a TGI [57] greater than 100 µM and a TGI [2] greater than 100 µM. For the same molecule, the TGI [3] was greater than 100 µM, the TGI [4] was greater than 100 µM and the TGI [5] was greater than 100 µM. For the same molecule, the TGI [6] was greater than 100 µM, the TGI [7] was greater than 100 µM and the TGI [8] was greater than 100 µM. The TGI [9] was greater than 100 µM, the TGI [10] was greater than 100 µM and the TGI [11] was greater than 100 µM. It also gave a TGI [12] greater than 100 µM, a TGI [13] greater than 100 µM and a TGI [14] greater than 100 µM. It also gave a TGI [15] greater than 100 µM, a TGI [16] greater than 100 µM and a TGI [17] greater than 100 µM. It also gave a TGI [18] greater than 100 µM, a TGI [19] greater than 100 µM and a TGI [20] greater than 100 µM. For the same molecule, the TGI [21] was greater than 100 µM, the TGI [58] was greater than 100 µM and the TGI [22] was greater than 100 µM. It also gave a TGI [23] greater than 100 µM, a TGI [24] greater than 100 µM and a TGI [25] greater than 100 µM. The TGI [26] was greater than 100 µM, the TGI [27] was greater than 100 µM and the TGI [28] was greater than 100 µM. It also gave a TGI [29] greater than 100 µM, a TGI [30] greater than 100 µM and a TGI [31] greater than 100 µM. For the same molecule, the TGI [32] was greater than 100 µM, the TGI [33] was greater than 100 µM and the TGI [34] was greater than 100 µM. The TGI [35] was greater than 100 µM, the TGI [36] was greater than 100 µM and the TGI [37] was greater than 100 µM. For the same molecule, the TGI [38] was greater than 100 µM, the TGI [39] was greater than 100 µM and the TGI [40] was greater than 100 µM. It also gave a TGI [41] greater than 100 µM, a TGI [42] greater than 100 µM and a TGI [43] greater than 100 µM. The TGI [44] was greater than 100 µM, the TGI [45] was greater than 100 µM and the TGI [46] was greater than 100 µM. It also gave a TGI [47] greater than 100 µM, a TGI [48] greater than 100 µM and a TGI [49] greater than 100 µM. The TGI [50] was greater than 100 µM, the TGI [51] was greater than 100 µM and the TGI [52] was greater than 100 µM. For the same molecule, the TGI [53] was greater than 100 µM, the TGI [54] was greater than 100 µM and the TGI [55] was greater than 100 µM. The TGI [56] was greater than 100 µM.
`O=c1n(-c2ccccc2)c(=O)n2n1C1C=CC2C2C(C1)C2(Cl)Cl` (configuration not stated) was tested, and the TGI [2] was greater than 100 µM, the TGI [3] was greater than 100 µM and the TGI [4] was greater than 100 µM. It also gave a TGI [5] greater than 100 µM, a TGI [6] greater than 100 µM and a TGI [7] greater than 100 µM. It also gave a TGI [8] greater than 100 µM, a TGI [9] greater than 100 µM and a TGI [10] greater than 100 µM. It also gave a TGI [11] greater than 100 µM, a TGI [12] greater than 100 µM and a TGI [13] greater than 100 µM. For the same molecule, the TGI [14] was greater than 100 µM, the TGI [15] was greater than 100 µM and the TGI [16] was greater than 100 µM. It also gave a TGI [17] greater than 100 µM, a TGI [18] greater than 100 µM and a TGI [19] greater than 100 µM. It also gave a TGI [20] greater than 100 µM, a TGI [21] greater than 100 µM and a TGI [58] greater than 100 µM. For the same molecule, the TGI [23] was greater than 100 µM, the TGI [24] was greater than 100 µM and the TGI [26] was greater than 100 µM. For the same molecule, the TGI [59] was greater than 100 µM, the TGI [27] was greater than 100 µM and the TGI [28] was greater than 100 µM. For the same molecule, the TGI [30] was greater than 100 µM, the TGI [31] was greater than 100 µM and the TGI [32] was greater than 100 µM. The TGI [33] was greater than 100 µM, the TGI [34] was greater than 100 µM and the TGI [35] was greater than 100 µM. For the same molecule, the TGI [36] was greater than 100 µM, the TGI [37] was greater than 100 µM and the TGI [38] was greater than 100 µM. The TGI [39] was greater than 100 µM, the TGI [40] was greater than 100 µM and the TGI [42] was greater than 100 µM. For the same molecule, the TGI [43] was greater than 100 µM, the TGI [44] was greater than 100 µM and the TGI [45] was greater than 100 µM. It also gave a TGI [46] greater than 100 µM, a TGI [47] greater than 100 µM and a TGI [48] greater than 100 µM. The TGI [49] was greater than 100 µM, the TGI [50] was greater than 100 µM and the TGI [51] was greater than 100 µM. It also gave a TGI [52] greater than 100 µM, a TGI [53] greater than 100 µM and a TGI [54] greater than 100 µM. The TGI [55] was greater than 100 µM and the TGI [56] was greater than 100 µM.
